Calls of active or inactive are those of the source. No cut-off for these calls is given here.
Experiments:
Mus musculus [1] = experiment: Hypnotic effect in ip dosed DBA mouse assessed as increase in baclofen-induced duration of loss of righting reflex incubated for 30 mins prior to baclofen-challenge; assay type: functional, organism-based
Mus musculus [2] = experiment: Hypnotic effect in ip dosed DBA mouse assessed as reduction in baclofen-induced onset of loss of righting reflex incubated 30 mins prior to baclofen-challenge; assay type: functional, organism-based
Mus musculus [3] = experiment: Hypnotic effect in DBA mouse assessed as potentiation of baclofen-induced loss of righting reflex at 10 mg/kg, ip incubated for 30 mins prior to baclofen-challenge; assay type: functional, organism-based; design: dose 10 mg/kg
[4] = Drug metabolism in mouse liver microsomes at 5 uM after 60 mins by LC/MS/MS analysis; assay type: ADME, Microsome; details: read-out: Drug metabolism
[5] = Ratio of compound IC50 to COR627 IC50 for mouse NIH/3T3 cells; assay type: ADME, cell-based, NIH3T3; details: read-out: Ratio IC50
Rattus norvegicus [6] = organism: Rattus norvegicus; experiment: (§1) Positive allosteric modulation of GABAB receptor in rat cortical membranes assessed as potentiation of GABA-induced [35S]GTPgammaS binding after 30 mins by liquid scintillation counting analysis; assay type: functional, cell membranes; details: Membrane
Rattus norvegicus [7] = organism: Rattus norvegicus; experiment: Positive allosteric modulation of GABAB receptor in rat cortical membranes assessed as stimulation of [35S]GTPgammaS binding up to 100 uM after 30 mins by liquid scintillation counting analysis; assay type: functional, cell membranes; details: Membrane
Rattus norvegicus [8] = organism: Rattus norvegicus; experiment: Positive allosteric modulation of GABAB receptor in rat cortical membranes assessed as potentiation of GABA-induced [35S]GTPgammaS binding at 2.5 uM after 30 mins by liquid scintillation counting analysis relative to GABA; assay type: functional, cell membranes; details: Membrane
[9] = Elimination rate constant in mouse liver microsomes at 5 uM after 60 mins by LC/MS/MS analysis; assay type: ADME, Microsome
Mus musculus [10] = experiment: Hypnotic effect in DBA mouse assessed as increase in baclofen-induced duration of loss of righting reflex over 30 mg/kg, ip incubated for 30 mins prior to baclofen-challenge relative to vehicle-treated control; assay type: functional, organism-based; design: dose 30 mg/kg
Plasma = experiment: Metabolic stability in mouse plasma at 5 uM after 30 mins by HPLC-MS analysis; assay type: ADME, cell-free; details: 0.5 h
[11] = Intrinsic clearance in mouse liver microsomes assessed per mg protein at 5 uM after 60 mins by LC/MS/MS analysis; assay type: ADME, Microsome; details: read-out: CLH
Mus musculus [12] = experiment: Hypnotic effect in DBA mouse assessed as potentiation of baclofen-induced loss of righting reflex at 30 mg/kg, ip incubated for 30 mins prior to baclofen-challenge; assay type: functional, organism-based; design: dose 30 mg/kg
NIH3T3 = experiment: Cytotoxicity against mouse NIH/3T3 cells after 24 hrs by neutral red staining-based UV/visible spectrophotometric analysis; assay type: cell-based; details: NIH3T3, 24 h
Mus musculus [13] = experiment: Hypnotic effect in DBA mouse assessed as potentiation of baclofen-induced loss of righting reflex at 1 mg/kg, ip incubated for 30 mins prior to baclofen-challenge; assay type: functional, organism-based; design: dose 1 mg/kg
[14] = Ratio of compound IC50 to COR628 IC50 for mouse NIH/3T3 cells; assay type: ADME, cell-based, NIH3T3; details: read-out: Ratio IC50
Mus musculus [15] = experiment: Hypnotic effect in DBA mouse assessed as potentiation of baclofen-induced loss of righting reflex at 100 mg/kg, ip incubated for 30 mins prior to baclofen-challenge; assay type: functional, organism-based; design: dose 100 mg/kg
Mus musculus [16] = experiment: Hypnotic effect in DBA mouse assessed as reduction in baclofen-induced onset of loss of righting reflex at 300 mg/kg, ig incubated for 30 mins prior to baclofen-challenge relative to vehicle-treated control; assay type: functional, organism-based; design: dose 300 mg/kg
Rattus norvegicus [17] = organism: Rattus norvegicus; experiment: Positive allosteric modulation of GABAB receptor in rat cortical membranes assessed as potentiation of GABA-induced [35S]GTPgammaS binding at 25 uM after 30 mins by liquid scintillation counting analysis relative to GABA; assay type: functional, cell membranes; details: Membrane
Mus musculus [18] = experiment: Hypnotic effect in DBA mouse assessed as potentiation of baclofen-induced loss of righting reflex at 300 mg/kg, ig incubated for 30 mins prior to baclofen-challenge; assay type: functional, organism-based; design: dose 300 mg/kg
Mus musculus [19] = experiment: Hypnotic effect in DBA mouse assessed as increase in baclofen-induced duration of loss of righting reflex at 300 mg/kg, ig incubated for 30 mins prior to baclofen-challenge relative to vehicle-treated control; assay type: functional, organism-based; design: dose 300 mg/kg
Mus musculus [20] = experiment: Hypnotic effect in DBA mouse assessed as potentiation of baclofen-induced loss of righting reflex at 3 mg/kg, ip incubated for 30 mins prior to baclofen-challenge; assay type: functional, organism-based; design: dose 3 mg/kg
Mus musculus [21] = experiment: Hypnotic effect in DBA mouse assessed as potentiation of baclofen-induced loss of righting reflex at 300 mg/kg, ip incubated for 30 mins prior to baclofen-challenge; assay type: functional, organism-based; design: dose 300 mg/kg
Mus musculus [22] = experiment: Hypnotic effect in DBA mouse assessed as reduction in baclofen-induced onset of loss of righting reflex over 1 mg/kg, ip incubated for 30 mins prior to baclofen-challenge relative to vehicle-treated control; assay type: functional, organism-based; design: dose 1 mg/kg
Mus musculus [23] = experiment: Hypnotic effect in DBA mouse assessed as increase in pentobarbital-induced duration of loss of righting reflex at 300 mg/kg, ip incubated for 30 mins prior to pentobarbital-challenge; assay type: functional; details: route intraperitoneal
Mus musculus [24] = experiment: Hypnotic effect in DBA mouse assessed as reduction in pentobarbital-induced onset of loss of righting reflex at 100 mg/kg, ip incubated for 30 mins prior to pentobarbital-challenge (reference value: 60.0 +/- 0.0 min); assay type: functional; details: route intraperitoneal
[25] = as §1; assay type: functional, cell membranes, Membrane
Mus musculus [26] = experiment: Hypnotic effect in DBA mouse assessed as reduction in baclofen-induced onset of loss of righting reflex over 10 mg/kg, ip incubated for 30 mins prior to baclofen-challenge relative to vehicle-treated control; assay type: functional, organism-based; design: dose 10 mg/kg
Mus musculus [27] = experiment: Hypnotic effect in DBA mouse assessed as reduction in pentobarbital-induced onset of loss of righting reflex at 300 mg/kg, ip incubated for 30 mins prior to pentobarbital-challenge (reference value: 60.0 +/- 0.0 min); assay type: functional; details: route intraperitoneal
Mus musculus [28] = experiment: Hypnotic effect in DBA mouse assessed as potentiation of pentobarbital-induced loss of righting reflex at 100 mg/kg, ip incubated for 30 mins prior to pentobarbital-challenge; assay type: functional, organism-based; design: dose 100 mg/kg
Mus musculus [29] = experiment: Hypnotic effect in DBA mouse assessed as reduction in pentobarbital-induced onset of loss of righting reflex at 30 mg/kg, ip incubated for 30 mins prior to pentobarbital-challenge (reference value: 60.0 +/- 0.0 min); assay type: functional; details: route intraperitoneal
Mus musculus [30] = experiment: Hypnotic effect in DBA mouse assessed as potentiation of pentobarbital-induced loss of righting reflex at 30 mg/kg, ip incubated for 30 mins prior to pentobarbital-challenge; assay type: functional, organism-based; design: dose 30 mg/kg
Mus musculus [31] = experiment: Hypnotic effect in DBA mouse assessed as increase in pentobarbital-induced duration of loss of righting reflex at 100 mg/kg, ip incubated for 30 mins prior to pentobarbital-challenge; assay type: functional; details: route intraperitoneal
Mus musculus [32] = experiment: Hypnotic effect in DBA mouse assessed as potentiation of pentobarbital-induced loss of righting reflex at 300 mg/kg, ip incubated for 30 mins prior to pentobarbital-challenge; assay type: functional, organism-based; design: dose 300 mg/kg
Mus musculus [33] = experiment: Hypnotic effect in DBA mouse assessed as increase in pentobarbital-induced duration of loss of righting reflex at 30 mg/kg, ip incubated for 30 mins prior to pentobarbital-challenge; assay type: functional; details: route intraperitoneal
Rattus norvegicus [34] = organism: Rattus norvegicus; experiment: Positive allosteric modulation of GABAB receptor in rat cortical membranes assessed as potentiation of GABA-induced [35S]GTPgammaS binding at 30 uM after 30 mins by liquid scintillation counting analysis relative to GABA; assay type: functional, cell membranes; details: Membrane
Mus musculus [35] = experiment: Hypnotic effect in DBA mouse assessed as increase in baclofen-induced duration of loss of righting reflex over 10 mg/kg, ip incubated for 30 mins prior to baclofen-challenge relative to vehicle-treated control; assay type: functional, organism-based; design: dose 10 mg/kg

SMILES | Activity (Mus musculus [1]) | Activity (Mus musculus [2]) | Activity (Mus musculus [3]) | metabolised at 1 h, 5 µM [4] [%] | Activity (Rattus norvegicus [7]) | Activity (Rattus norvegicus [8]) [%] | k el at 1 h, 5 µM [9] [s⁻¹] | Stability (Plasma) | microsomal CLint at 5 µM [11] [µL/min/mg] | Activity (Mus musculus [12]) | IC50 (NIH3T3) [µM] | Activity (Mus musculus [13]) | Activity (Mus musculus [15]) | Activity (Mus musculus [16]) | Activity (Rattus norvegicus [17]) [%] | Activity (Mus musculus [18]) | Activity (Mus musculus [19]) | Activity (Mus musculus [20]) | Activity (Mus musculus [21]) | also measured
CCc1c(C)sc(NC(=O)c2ccc(C(C)(C)C)cc2)c1C(=O)OC | Dose-dependent effect | Dose-dependent effect | Active | 32 | inactive | 19 | 0.000144 | Unstable | 8.98 | Active | 140 | Active | Active | Active | 23.2 | Active | Active | Active | Active | selectivity ratio [5]: 4; Activity (Rattus norvegicus [6]): inactive; Activity (Mus musculus [10]): Active; selectivity ratio [14]: 4; Activity (Mus musculus [22]): Active
CCc1c(C)sc(NC(=O)c2ccc(Cl)cc2)c1C(=O)OC | Dose-dependent effect | Dose-dependent effect | Active | 28 | inactive | 9.2 | 0.000127 | Unstable | 7.9 | Active | 59 | Active | Active | Active | 18.3 | Active | Active | Active | Active | Time (Mus musculus [23]): 7.3 min; Time (Mus musculus [24]): 51.8 min; EC50 [25]: 1.11 µM; Activity (Mus musculus [26]): Active; Time (Mus musculus [27]): 45.8 min; Activity (Mus musculus [28]): inactive; Time (Mus musculus [29]): 60 min; Activity (Mus musculus [30]): inactive; Time (Mus musculus [31]): 4.8 min; Activity (Mus musculus [32]): Active; Time (Mus musculus [33]): 0 min; Emax (Rattus norvegicus [34]): 51%; Activity (Mus musculus [35]): Active

From ChEMBL document CHEMBL2346598, “Synthesis and pharmacological characterization of 2-(acylamino)thiophene derivatives as metabolically stable, orally effective, positive allosteric modulators of the GABAB receptor” (J Med Chem, 2013)
